# Data published in PMC7680421 (Cell chemical biology, 2020).
# How the values were obtained:
# [1] = biological target: T1, ENPP1 in mouse plasma (Mus musculus, UniProt P06802); experiment: Inhibition of cGAMP degradation in mouse plasma; format: biochemical; conditions: 50 mM EDTA, 37 °C
# T1 sequence (P06802 85-906 limits assumed): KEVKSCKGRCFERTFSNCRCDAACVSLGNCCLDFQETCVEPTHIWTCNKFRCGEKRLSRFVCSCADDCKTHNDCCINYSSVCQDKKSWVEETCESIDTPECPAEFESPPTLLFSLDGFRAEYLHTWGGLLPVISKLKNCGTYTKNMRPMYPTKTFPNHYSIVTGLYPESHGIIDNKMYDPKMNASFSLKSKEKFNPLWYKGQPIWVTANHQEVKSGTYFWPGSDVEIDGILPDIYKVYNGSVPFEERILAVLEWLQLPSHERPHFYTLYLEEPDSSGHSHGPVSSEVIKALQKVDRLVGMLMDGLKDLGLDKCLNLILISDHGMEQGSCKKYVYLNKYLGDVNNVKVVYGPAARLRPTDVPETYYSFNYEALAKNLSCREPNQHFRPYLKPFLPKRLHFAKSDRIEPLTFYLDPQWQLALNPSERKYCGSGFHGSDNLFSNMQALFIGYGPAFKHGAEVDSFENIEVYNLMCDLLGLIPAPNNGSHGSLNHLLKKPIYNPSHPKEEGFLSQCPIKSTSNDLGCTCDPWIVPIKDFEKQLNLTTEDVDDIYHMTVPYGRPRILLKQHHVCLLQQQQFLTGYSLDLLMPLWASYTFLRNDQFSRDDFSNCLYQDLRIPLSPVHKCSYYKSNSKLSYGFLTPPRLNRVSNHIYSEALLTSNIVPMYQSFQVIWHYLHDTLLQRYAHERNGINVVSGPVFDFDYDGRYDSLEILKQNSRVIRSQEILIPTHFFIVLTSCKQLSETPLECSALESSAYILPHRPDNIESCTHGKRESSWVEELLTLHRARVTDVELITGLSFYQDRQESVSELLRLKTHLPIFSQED
# [2] = biological target: ENPP1 in human plasma (Homo sapiens, UniProt P22413); conditions: 50 mM EDTA, 37 °C
# [3] = Plasma kinetics: half-life of radiolabeled cGAMP in mouse plasma; format: in vitro ADME; conditions: 5 μM cGAMP, 37 °C
# [4] = Plasma kinetics: half-life of radiolabeled cGAMP in human plasma; format: in vitro ADME; conditions: based on 5 healthy donors, 5 μM cGAMP, 37 °C
# [5] = biological target: T2, Mouse ENPP1 (Mus musculus, UniProt P06802); conditions: substrate cGAMP, pH 7.4
# T2 sequence (P06802 92-905 isoform P06802-2): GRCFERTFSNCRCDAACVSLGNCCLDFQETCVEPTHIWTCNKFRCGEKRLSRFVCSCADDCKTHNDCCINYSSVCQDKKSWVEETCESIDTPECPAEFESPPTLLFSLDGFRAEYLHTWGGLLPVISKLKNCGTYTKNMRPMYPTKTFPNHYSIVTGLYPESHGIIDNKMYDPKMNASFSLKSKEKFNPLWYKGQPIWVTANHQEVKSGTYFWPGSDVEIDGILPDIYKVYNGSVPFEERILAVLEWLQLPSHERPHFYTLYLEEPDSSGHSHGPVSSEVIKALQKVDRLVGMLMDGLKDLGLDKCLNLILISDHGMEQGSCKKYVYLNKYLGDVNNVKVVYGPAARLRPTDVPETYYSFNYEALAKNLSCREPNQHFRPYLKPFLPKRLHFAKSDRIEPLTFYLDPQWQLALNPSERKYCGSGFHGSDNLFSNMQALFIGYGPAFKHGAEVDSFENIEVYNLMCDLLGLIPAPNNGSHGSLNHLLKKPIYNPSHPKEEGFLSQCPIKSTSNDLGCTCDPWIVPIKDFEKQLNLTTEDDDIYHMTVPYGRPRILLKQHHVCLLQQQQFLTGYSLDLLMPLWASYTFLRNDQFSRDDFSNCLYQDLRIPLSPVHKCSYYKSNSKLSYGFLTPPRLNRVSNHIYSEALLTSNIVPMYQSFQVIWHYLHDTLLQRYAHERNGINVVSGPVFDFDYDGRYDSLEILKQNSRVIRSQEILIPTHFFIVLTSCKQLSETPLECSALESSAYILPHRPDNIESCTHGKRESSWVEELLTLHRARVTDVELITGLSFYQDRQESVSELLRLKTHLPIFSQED
# [6] = biological target: hERG channel (Homo sapiens, UniProt Q12809); experiment: hERG channel inhibition assay; conditions: at 25 μM
# [7] = biological target: T2, Mouse ENPP1; experiment: In vitro ENPP1 activity assay with cGAMP as substrate; format: biochemical; conditions: Ki at pH 7.4
# hERG channel, sequence (Q12809 whole entry): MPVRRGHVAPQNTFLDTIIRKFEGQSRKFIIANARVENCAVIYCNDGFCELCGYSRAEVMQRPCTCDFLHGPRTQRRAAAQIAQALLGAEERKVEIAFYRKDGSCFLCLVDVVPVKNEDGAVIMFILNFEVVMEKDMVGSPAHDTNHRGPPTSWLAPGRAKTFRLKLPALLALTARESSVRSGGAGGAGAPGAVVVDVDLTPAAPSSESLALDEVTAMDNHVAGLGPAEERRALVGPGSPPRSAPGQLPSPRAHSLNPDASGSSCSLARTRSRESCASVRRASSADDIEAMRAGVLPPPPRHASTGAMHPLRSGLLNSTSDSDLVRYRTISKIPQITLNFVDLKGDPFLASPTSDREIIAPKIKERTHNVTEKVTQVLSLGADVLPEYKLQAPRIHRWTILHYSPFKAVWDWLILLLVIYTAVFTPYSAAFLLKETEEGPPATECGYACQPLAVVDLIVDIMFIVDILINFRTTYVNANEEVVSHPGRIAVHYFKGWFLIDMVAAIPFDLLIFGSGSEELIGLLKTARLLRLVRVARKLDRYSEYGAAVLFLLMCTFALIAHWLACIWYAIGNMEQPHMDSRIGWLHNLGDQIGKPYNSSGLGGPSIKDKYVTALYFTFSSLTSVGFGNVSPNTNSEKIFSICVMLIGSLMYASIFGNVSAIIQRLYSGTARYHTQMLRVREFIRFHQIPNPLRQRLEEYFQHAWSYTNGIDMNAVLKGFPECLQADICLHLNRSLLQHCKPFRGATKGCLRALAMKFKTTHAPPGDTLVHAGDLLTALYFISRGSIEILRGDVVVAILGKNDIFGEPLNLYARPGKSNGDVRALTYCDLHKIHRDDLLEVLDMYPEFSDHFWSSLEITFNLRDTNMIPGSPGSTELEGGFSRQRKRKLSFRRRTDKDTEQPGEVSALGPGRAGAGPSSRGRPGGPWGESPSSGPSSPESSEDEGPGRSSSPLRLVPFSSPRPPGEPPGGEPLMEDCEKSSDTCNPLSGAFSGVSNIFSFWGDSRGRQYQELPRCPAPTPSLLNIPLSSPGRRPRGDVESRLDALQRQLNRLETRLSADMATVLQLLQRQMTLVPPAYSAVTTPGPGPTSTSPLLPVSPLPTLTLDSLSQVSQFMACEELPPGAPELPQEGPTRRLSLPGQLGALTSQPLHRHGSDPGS
# ENPP1 in human plasma, sequence (P22413 103-925 limits assumed): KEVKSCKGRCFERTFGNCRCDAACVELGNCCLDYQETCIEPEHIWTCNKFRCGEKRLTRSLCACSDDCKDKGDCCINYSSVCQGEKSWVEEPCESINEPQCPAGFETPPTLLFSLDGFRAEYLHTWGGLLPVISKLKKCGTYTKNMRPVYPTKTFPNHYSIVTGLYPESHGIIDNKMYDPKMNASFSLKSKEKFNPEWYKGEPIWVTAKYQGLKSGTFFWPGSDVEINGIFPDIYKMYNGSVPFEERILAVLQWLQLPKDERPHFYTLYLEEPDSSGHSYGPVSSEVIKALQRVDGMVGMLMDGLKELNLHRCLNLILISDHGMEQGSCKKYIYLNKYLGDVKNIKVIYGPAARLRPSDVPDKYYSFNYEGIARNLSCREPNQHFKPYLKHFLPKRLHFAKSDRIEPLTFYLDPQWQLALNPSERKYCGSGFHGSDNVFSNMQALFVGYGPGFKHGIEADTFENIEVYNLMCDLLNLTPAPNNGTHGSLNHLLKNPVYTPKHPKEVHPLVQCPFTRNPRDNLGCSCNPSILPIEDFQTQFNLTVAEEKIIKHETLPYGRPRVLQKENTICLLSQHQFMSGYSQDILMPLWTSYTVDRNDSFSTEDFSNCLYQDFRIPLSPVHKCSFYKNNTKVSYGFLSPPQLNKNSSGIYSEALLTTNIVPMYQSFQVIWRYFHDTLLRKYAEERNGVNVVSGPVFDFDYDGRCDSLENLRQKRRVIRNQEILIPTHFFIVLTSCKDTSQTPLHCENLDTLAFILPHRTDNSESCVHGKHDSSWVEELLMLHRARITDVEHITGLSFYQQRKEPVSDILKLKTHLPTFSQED
compound,measurement,setting,value
O=C(O)CN(CCN(CC(=O)O)CC(=O)O)CC(=O)O [EDTA],effect on cGAMP degradation,[1],abrogated cGAMP degradation
same,effect on cGAMP degradation,[2],abrogated cGAMP degradation
"Nc1nc2c(ncn2[C@@H]2O[C@@H]3COP(=O)(O)O[C@H]4[C@@H](O)[C@H](n5cnc6c(N)ncnc65)O[C@@H]4COP(=O)(O)O[C@@H]2[C@@H]3O)c(=O)[nH]1 [cGAMP, 2’,3’-cyclic GMP-AMP]",t1/2 of cGAMP,[3],16 min
same,t1/2 of cGAMP,[4],30 to 60 min
same,Km,[5],240 µM
COc1cc2ncnc(N3CCC(CCP(=O)(O)O)CC3)c2cc1OC [compound 15],hERG inhibition,[6],no inhibition
COc1ccc2ncnc(N3CCC(CCP(=O)(O)O)CC3)c2c1 [compound 25],loss in potency compared to compound 15,[7],100 fold
COc1cc2nccc(N3CCC(CCP(=O)(O)O)CC3)c2cc1OC [compound 46],loss in potency compared to compound 15,[7],3 fold
